Reference: US20070203073A1 (priority 2005, published 2007)

Test system: SARS-CoV S protein
Assay type: cell-based

## CC(=O)N[C@@H](CC(C)C)C(=O)N[C@@H](CC(C)C)C(=O)N[C@H](C=O)CCCNC(=N)N [leupeptin]
  effect on cell-cell fusion: reduced
